Entries after “also recorded” stand apart in the source; their conditions may differ.
Assay: Oxidative stability of salmon oil, induction period in weight increase experiment
Conditions: salmon oil from fresh raw materials, antioxidant added to oil, versus control oil without additions
Procedure: The oil stability was measured as the induction period (in days) in weight increase experiment. Oil A is salmon oil with 200 ppm d-α-tocopherol. Oil E is the control without additions.
To a sample of fresh fish oil prepared by gentle processing of fresh salmon filleting by-products (viscera, heads, framebones), we added 200 ppm vitamin E consisting of 89-99% d-α-tocopherol and 1-11% (β+γ+δ)-tocopherols (according to product specification), and a mixture of other/synergistic.
To another sample of the oil, we added 200 ppm vitamin E consisting of 14% d-α-tocopherol, 1% d-β-tocopherol, 62% d-γ-tocopherol and 23% d-δ-tocopherol, and a mixture of other/synergistic antioxidants similar to what was given to the first sample.
The oxidative stability of the three oils were tested by subjecting 3.0 g samples in 6.0 cm glass petri dishes to a temperature of 35° C. while exposed to air. The oxygen uptake caused by oxidation was recorded as a rapid weight increase of the samples when their antioxidative resistance was broken down, after an initial induction time (IP).

Structure (SMILES): Cc1c(C)c2c(c(C)c1O)CC[C@@](C)(CCC[C@H](C)CCC[C@H](C)CCCC(C)C)O2 [d-α-tocopherol]
- oil stability measured as induction period: weakly prooxidant effects; also recorded: did not increase stability, but gave instead a small prooxidant effect

From patent US20060165840A1, “Fish feed” (Norsk Hydro ASA, priority 2002, published 2006)
